Values after ≈ are worked out from the molar mass of the structure shown. Like-named read-outs stand apart in the source and are kept apart here.
Experiments:
[1] = In vitro penetration through human skin in modified Franz cells; type: in vitro ADME; settings: for Apparent flux values: human skin 360-400 µm, donor 30% solution (prodrugs) or 30% suspension (parent drugs) in 2mL of pH 7.4 phosphate buffer (0.2M); for diffuses through human skin times faster than the parent drug: prodrug versus mefenamic acid, meclofenamic acid, flufenamic acid, niflumic acid, or flunixin
[2] = Acute toxicity, LD50 orally; settings: mouse, in vivo, po; orally in mice; prodrugs
Excerpt: The acute toxicity of the prodrugs was investigated.

[3] = Analgetic activity: prolongation time of the pain threshold of a mouse tail (D'Amour-Smith Method); type: in vivo, mice; settings: 50mg/kg transdermally, mouse tails exposed to heat; Figure 3
Description: Analgetic activity: The prolongation time of the pain threshold of a mouse tail was determined in accordance with the D'Amour-Smith Method (J. Pharmacol. Exp. Ther., 72, 74(1941)). After 50mg/kg of these prodrugs were administered transdermally, the tails of mice were exposed to heat and the prolongation time of pain threshold was determined.
Group A is the control group. • Figure 4. The rate of swelling (%) after a carrageenin injection. […] Group A is the control group. • Figure 5.

[4] = Analgetic activity: acetic acid writhing inhibition; type: in vivo; settings: mice; for No. of Writhings: 100 mg/kg transdermally 60 minutes before acetic acid solution intraperitoneally, control group 35.0; for rate of writhings inhibition %: 100 mg/kg transdermally 60 minutes before acetic acid solution, based on the control group
Excerpt: The group A is the control group. Table 1. The rate of writhings inhibition by prodrugs of arylanthranilic acids

[5] = Antipyretic activity after sterilized E. coli suspension as a pyrogen; type: in vivo; settings: rats, 100 mg/kg transdermally 2 hours after E. coli pyrogen
Description: Antipyretic activity: Rats received a sterilized E. coli suspension as a pyrogen. […] The body temperature of rats was taken at 90 min. intervals before and after the administration of the test compounds. Table 2. Antipyretic Activity of prodrugs of arylanthranilic acids.

Solubility in water = settings: for solubility: solubility in water
[6] = Gastroduodenal bleeding (fecal blood) after oral administration for 21 days; settings: rats, orally 50 mg/kg per day for 21 days
[7] = In vivo penetration through the skin of intact hairless mice, plasma levels by HPLC; settings: for peak plasma levels / time to peak levels after application of the donor systems: 20% solution in 1 mL of isopropanol on 10 cm^2 of the backs of hairless mice; for peak plasma levels: plasma levels of parent drug; for time to peak levels after application of the donor systems: transdermal; for difference in peak plasma levels, prodrugs versus parent drugs: topical application, hairless mice
Description: (§1) The in vivo rates of penetration of diethylaminoethyl 2-[(2,3-dimethylphenyl)amino]benzoate.AcOH, diethylaminoethyl 2-[(2,6-dichloro-3-methylphenyl)amino]benzoate.AcOH, diethylaminoethyl 2-[[(3-(trifluoromethyl)phenyl)amino]benzoate.AcOH, diethylaminoethyl 2-[[3-(trifluoromethyl)phenyl]amino]-3-pyridinecarboxylate.AcOH, and diethylaminoethyl 2-[[2-methyl-3-(trifluoromethyl)phenyl]amino]-3-pyridinecarboxylate.AcOH, mefenamic acid, meclofenamic acid, flufenamic acid, niflumic acid, and flunixin through the skin of intact hairless mice were compared. The donor consisted of a 20% solution of these compounds in 1 mL of isopropanol applied to a 10 cm^2 on the backs of the hairless mice. Plasma levels of mefenamic acid, meclofenamic acid, flufenamic acid, niflumic acid, and flunixin were determined by a specific high-performance liquid chromatography method.

[8] = J. Pharm. Sci., 82, 227(1993); cited from earlier work
[9] = hairless, mouse, in vivo
Description: as §1

[10] = rat, in vivo, po, 50 mg/kg/day, 21 days
[11] = taken orally; cited from earlier work
physchem = settings: water
[12] = cited from earlier work
[13] = parent drugs, given for comparison

Compound	Apparent flux values [1]	diffuses through human skin times faster than the parent drug [1]	LD50 [2]	analgesic activity, prolongation time of pain threshold (in words) [3]	No. of Writhings [4]	rate of writhings inhibition % [4]	body temperature t=0 min. [5]	body temperature t=90 min. [5]	body temperature t=180 min. [5]	body temperature t=270 min. [5]	solubility (Solubility in water)	average fecal blood [6]	peak plasma levels [7]	time to peak levels after application of the donor systems [7]	difference in peak plasma levels, prodrugs versus parent drugs [7]	peak plasma levels [9]	average fecal blood [10]	time to reach peak plasma level [11]	solubility (physchem)	further results
CCN(CC)CCOC(=O)c1cccnc1Nc1cccc(C(F)(F)F)c1 [diethylaminoethyl 2-[[3-(trifluoromethyl)phenyl]amino]-3-pyridinecarboxylate.AcOH]	1.8 mg/cm^2/h	~200 times	750 mg/kg	shown analgesic activity nicely	15.2	57%	37.25±0.07	36.82±0.06	36.70±0.05	36.50±0.08	> 450 mg/mL	none	~2 mg/mL	~50 min	approximately 200 times					solubility in water (Solubility in water): 400 mg/mL (≈ 1050 mM)
CC(=O)O.CCN(CC)CCNC(=O)c1ccccc1Nc1cccc(C)c1C [N-diethylaminoethyl 2-[(2,3-dimethylphenyl)amino] benzoamide.AcOH]																				solubility in water (Solubility in water): 400 mg/mL
CCN(CC)CCOC(=O)c1ccccc1Nc1cccc(C)c1C [diethylaminoethyl 2-[(2,3-dimethylphenyl)amino]benzoate.AcOH]	2.1 mg/cm^2/h	~200 times	900 mg/kg	shown analgesic activity nicely	15.6	55%	37.35±0.06	36.71±0.05	36.60±0.08	36.59±0.07	> 400 mg/mL	none	~2 mg/mL	~50 min	approximately 200 times					
CCN(CC)CCOC(=O)c1ccccc1Nc1c(Cl)ccc(C)c1Cl [diethylaminoethyl 2-[(2,6-dichloro-3-methylphenyl)amino]benzoate.AcOH]	2.0 mg/cm^2/h	~200 times	1000 mg/kg	shown analgesic activity nicely	14.2	59%	37.28±0.06	36.68±0.05	36.62±0.08	36.58±0.07	> 400 mg/mL	none	~2 mg/mL	~50 min	approximately 200 times					
CN(C)CCCC(=O)O[C@H]1CC[C@H]2[C@@H]3CCC4=CC(=O)CC[C@]4(C)[C@H]3CC[C@]12C.Cl [TSBH, testosteronyl-4-dimethylaminobutyrate.HCl]																				diffuses through human skin times faster than the drug (TS) itself [8]: ~60 times
CCN(CC)CCOC(=O)c1ccccc1Nc1cccc(C(F)(F)F)c1 [diethylaminoethyl 2-[[(3-(trifluoromethyl)phenyl)amino]benzoate.AcOH]	2.2 mg/cm^2/h	~200 times	800 mg/kg	shown analgesic activity nicely	16.1	54%	37.27±0.06	36.76±0.05	36.65±0.08	36.49±0.07	> 400 mg/mL	none	~2 mg/mL	~50 min	approximately 200 times					
Cc1cccc(Nc2ccccc2C(=O)O)c1C [mefenamic acid, 2-[(2,3-Dimethylphenyl)amino]benzoic acid]																~0.01 mg/mL	2-4 mg of fecal blood per gram of feces	2 to 4 h	< 0.1 mg/mL	LD50 ([12]; mouse, in vivo): 600 mg/kg
Cc1ccc(Cl)c(Nc2ccccc2C(=O)O)c1Cl [meclofenamic acid, 2-[(2,6-dichloro-3-methylphenyl)amino]benzoic acid]																~0.01 mg/mL	2-4 mg of fecal blood per gram of feces	2 to 4 h	< 0.1 mg/mL	
CCN(CC)CCNC(=O)c1ccccc1Nc1c(Cl)ccc(C)c1Cl [N-diethylaminoethyl 2-[(2,6-dichloro-3-methylphenyl)amino] benzoamide.AcOH]											400 mg/mL (≈ 1010 mM)									
Cc1c(Nc2ncccc2C(=O)O)cccc1C(F)(F)F [flunixin, 2-[[2-methyl-3-(trifluoromethyl)phenyl]amino]-3-pyridinecarboxylic acid]																~0.01 mg/mL	2-4 mg of fecal blood per gram of feces	2 to 4 h	< 0.1 mg/mL	
O=C(O)c1cccnc1Nc1cccc(C(F)(F)F)c1 [niflumic acid, 2-[[3-(trifluoromethyl)phenyl]amino]-3-pyridinecarboxylic acid]																~0.01 mg/mL	2-4 mg of fecal blood per gram of feces	2 to 4 h	< 0.1 mg/mL	LD50 [12, 13]: 650 mg/kg
CCN(CC)CCOC(=O)c1cccnc1Nc1cccc(C(F)(F)F)c1C [diethylaminoethyl 2-[[2-methyl-3-(trifluoromethyl)phenyl]amino]-3-pyridinecarboxylate.AcOH]	1.7 mg/cm^2/h	~200 times	1100 mg/kg	shown analgesic activity nicely	15.7	55%	37.23±0.06	36.69±0.06	36.52±0.08	36.40±0.07	> 450 mg/mL	none	~2 mg/mL	~50 min	approximately 200 times					solubility in water (Solubility in water): 400 mg/mL (≈ 1010 mM)
O=C(O)c1ccccc1Nc1cccc(C(F)(F)F)c1 [flufenamic acid, 2-[[(3-trifluoromethyl)phenyl]amino]benzoic acid]																~0.01 mg/mL	2-4 mg of fecal blood per gram of feces	2 to 4 h	< 0.1 mg/mL	LD50 [12, 13]: 715 mg/kg
